Measured values: ChEMBL document CHEMBL5715954, “Silencing c-Myc translation as a therapeutic strategy through targeting PI3Kδ and CK1ε in hematological malignancies” (Blood, 2017)

Experiments:
Parameters in all cases: scale not given: the % may be the effect or the level left
[1] = biological target: T1, Rhodopsin kinase GRK7 (Homo sapiens) (UniProt Q8WTQ7); assay: Inhibition of human GRK7 assessed as enzyme activity at 1 uM using casein as substrate preincubated for 20 mins followed by [gamma-33P]-ATP addition and measured after 120 mins by radiometric Hot-SpotSM Kinase assay relative to control
T1 sequence (whole entry): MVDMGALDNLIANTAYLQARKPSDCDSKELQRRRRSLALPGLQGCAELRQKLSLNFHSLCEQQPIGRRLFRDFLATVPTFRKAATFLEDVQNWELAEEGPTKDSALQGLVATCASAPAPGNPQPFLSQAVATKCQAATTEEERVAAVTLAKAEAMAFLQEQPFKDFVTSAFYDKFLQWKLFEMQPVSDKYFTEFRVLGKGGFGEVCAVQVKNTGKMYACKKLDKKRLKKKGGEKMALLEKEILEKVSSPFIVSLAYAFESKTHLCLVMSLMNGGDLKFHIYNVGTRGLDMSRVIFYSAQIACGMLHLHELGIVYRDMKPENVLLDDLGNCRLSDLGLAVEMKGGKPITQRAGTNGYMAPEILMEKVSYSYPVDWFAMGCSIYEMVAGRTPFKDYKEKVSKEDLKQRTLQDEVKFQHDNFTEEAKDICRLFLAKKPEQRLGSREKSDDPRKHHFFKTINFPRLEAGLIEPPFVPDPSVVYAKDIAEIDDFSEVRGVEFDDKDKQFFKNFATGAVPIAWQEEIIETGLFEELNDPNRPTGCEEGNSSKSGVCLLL

[2] = biological target: Serine/threonine-protein kinase tousled-like 2 (Homo sapiens) (UniProt Q86UE8); assay: Inhibition of human TLK2 assessed as enzyme activity at 1 uM using casein as substrate preincubated for 20 mins followed by [gamma-33P]-ATP addition and measured after 120 mins by radiometric Hot-SpotSM Kinase assay relative to control
Serine/threonine-protein kinase tousled-like 2 (Homo sapiens), sequence (Q86UE8 whole entry, looked up): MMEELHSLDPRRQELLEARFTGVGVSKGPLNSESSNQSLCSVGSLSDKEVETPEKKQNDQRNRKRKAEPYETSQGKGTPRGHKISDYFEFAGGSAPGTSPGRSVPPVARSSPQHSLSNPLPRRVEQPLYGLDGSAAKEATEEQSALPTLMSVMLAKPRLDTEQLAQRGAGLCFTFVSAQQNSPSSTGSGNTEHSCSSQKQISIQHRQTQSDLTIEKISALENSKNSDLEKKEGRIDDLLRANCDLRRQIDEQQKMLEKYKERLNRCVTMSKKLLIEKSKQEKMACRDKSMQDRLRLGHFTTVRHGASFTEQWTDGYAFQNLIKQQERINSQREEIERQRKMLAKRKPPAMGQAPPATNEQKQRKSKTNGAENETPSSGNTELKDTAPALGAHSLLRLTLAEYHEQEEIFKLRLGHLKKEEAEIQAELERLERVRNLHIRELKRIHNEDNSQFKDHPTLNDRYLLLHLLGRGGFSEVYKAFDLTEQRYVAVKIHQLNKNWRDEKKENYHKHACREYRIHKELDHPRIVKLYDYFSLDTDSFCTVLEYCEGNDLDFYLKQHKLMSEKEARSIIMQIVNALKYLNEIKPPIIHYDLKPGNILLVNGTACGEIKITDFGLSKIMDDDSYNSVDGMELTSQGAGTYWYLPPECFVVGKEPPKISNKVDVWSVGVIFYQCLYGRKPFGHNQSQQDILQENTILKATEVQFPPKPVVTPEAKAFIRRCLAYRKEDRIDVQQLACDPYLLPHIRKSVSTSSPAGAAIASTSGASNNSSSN

[3] = biological target: Receptor-type tyrosine-protein kinase FLT3 (Homo sapiens) (UniProt P36888); assay: Inhibition of human FLT3 assessed as enzyme activity at 1 uM using EAIYAAPFAKKK as substrate preincubated for 20 mins followed by [gamma-33P]-ATP addition and measured after 120 mins by radiometric Hot-SpotSM Kinase assay relative to control
Receptor-type tyrosine-protein kinase FLT3 (Homo sapiens), sequence (P36888 whole entry): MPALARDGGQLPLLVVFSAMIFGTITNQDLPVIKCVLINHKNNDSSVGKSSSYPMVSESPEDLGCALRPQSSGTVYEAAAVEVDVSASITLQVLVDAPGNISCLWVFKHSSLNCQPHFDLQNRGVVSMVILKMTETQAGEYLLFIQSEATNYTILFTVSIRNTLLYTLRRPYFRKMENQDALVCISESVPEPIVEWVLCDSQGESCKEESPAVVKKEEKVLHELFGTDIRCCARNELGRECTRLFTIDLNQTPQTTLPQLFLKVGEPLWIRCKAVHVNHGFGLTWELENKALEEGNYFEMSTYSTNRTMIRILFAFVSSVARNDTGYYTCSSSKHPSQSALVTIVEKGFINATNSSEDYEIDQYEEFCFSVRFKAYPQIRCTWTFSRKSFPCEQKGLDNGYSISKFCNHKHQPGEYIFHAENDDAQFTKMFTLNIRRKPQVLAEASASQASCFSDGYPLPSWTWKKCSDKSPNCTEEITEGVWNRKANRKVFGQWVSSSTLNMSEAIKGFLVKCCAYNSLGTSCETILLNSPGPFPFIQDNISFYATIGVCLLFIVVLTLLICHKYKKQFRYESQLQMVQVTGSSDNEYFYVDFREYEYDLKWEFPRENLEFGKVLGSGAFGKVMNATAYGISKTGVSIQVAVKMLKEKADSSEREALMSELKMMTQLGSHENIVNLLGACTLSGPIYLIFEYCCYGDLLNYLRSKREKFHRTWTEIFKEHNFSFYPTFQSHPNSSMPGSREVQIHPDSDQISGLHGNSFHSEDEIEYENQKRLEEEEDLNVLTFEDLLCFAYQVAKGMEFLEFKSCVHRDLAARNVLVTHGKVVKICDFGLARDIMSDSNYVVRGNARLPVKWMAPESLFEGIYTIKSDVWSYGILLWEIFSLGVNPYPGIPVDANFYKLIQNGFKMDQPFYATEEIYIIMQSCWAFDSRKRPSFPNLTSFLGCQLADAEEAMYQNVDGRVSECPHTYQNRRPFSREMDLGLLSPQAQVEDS

[4] = biological target: Mitogen-activated protein kinase 3 (Homo sapiens) (UniProt P27361); assay: Inhibition of human ERK1 assessed as enzyme activity at 1 uM using myelin basic protein as substrate preincubated for 20 mins followed by [gamma-33P]-ATP addition and measured after 120 mins by radiometric Hot-SpotSM Kinase assay relative to control
Mitogen-activated protein kinase 3 (Homo sapiens), sequence (P27361 whole entry): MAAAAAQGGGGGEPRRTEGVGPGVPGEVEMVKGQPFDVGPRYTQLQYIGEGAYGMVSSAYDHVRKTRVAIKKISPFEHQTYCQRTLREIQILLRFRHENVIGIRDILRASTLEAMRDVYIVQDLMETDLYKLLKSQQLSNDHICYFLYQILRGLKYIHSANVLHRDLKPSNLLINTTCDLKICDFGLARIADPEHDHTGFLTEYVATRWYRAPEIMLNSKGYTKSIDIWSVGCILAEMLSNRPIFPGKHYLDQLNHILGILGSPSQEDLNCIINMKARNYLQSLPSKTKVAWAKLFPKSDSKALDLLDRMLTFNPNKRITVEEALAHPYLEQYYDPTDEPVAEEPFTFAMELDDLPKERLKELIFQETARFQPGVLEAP

[5] = biological target: T2, Serine/threonine-protein kinase TBK1 (Homo sapiens) (UniProt Q9UHD2); assay: Inhibition of human TBK1 assessed as enzyme activity at 1 uM using myelin basic protein as substrate preincubated for 20 mins followed by [gamma-33P]-ATP addition and measured after 120 mins by radiometric Hot-SpotSM Kinase assay relative to control
T2 sequence (whole entry): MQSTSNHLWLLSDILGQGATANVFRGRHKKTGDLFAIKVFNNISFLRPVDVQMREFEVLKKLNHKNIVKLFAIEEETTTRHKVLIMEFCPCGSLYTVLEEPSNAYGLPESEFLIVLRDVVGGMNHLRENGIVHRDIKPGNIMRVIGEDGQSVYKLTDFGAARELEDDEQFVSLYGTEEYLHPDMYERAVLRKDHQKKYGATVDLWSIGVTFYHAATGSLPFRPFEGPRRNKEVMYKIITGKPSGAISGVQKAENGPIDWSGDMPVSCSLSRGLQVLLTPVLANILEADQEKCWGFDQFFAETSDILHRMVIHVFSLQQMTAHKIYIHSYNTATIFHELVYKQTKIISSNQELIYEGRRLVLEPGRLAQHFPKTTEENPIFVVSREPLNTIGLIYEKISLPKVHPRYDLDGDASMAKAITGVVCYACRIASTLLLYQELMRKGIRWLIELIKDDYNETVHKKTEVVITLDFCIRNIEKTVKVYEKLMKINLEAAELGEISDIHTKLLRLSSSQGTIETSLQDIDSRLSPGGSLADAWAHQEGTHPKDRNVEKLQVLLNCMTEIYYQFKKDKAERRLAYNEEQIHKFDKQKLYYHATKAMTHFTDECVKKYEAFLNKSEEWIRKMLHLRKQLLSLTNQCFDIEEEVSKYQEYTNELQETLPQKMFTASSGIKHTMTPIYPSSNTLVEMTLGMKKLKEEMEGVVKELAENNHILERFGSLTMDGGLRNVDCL

[6] = biological target: Mitogen-activated protein kinase kinase kinase 11 (Homo sapiens) (UniProt Q16584); assay: Inhibition of human MLK3 assessed as enzyme activity at 1 uM using myelin basic protein as substrate preincubated for 20 mins followed by [gamma-33P]-ATP addition and measured after 120 mins by radiometric Hot-SpotSM Kinase assay relative to control
Mitogen-activated protein kinase kinase kinase 11 (Homo sapiens), sequence (Q16584 whole entry, looked up): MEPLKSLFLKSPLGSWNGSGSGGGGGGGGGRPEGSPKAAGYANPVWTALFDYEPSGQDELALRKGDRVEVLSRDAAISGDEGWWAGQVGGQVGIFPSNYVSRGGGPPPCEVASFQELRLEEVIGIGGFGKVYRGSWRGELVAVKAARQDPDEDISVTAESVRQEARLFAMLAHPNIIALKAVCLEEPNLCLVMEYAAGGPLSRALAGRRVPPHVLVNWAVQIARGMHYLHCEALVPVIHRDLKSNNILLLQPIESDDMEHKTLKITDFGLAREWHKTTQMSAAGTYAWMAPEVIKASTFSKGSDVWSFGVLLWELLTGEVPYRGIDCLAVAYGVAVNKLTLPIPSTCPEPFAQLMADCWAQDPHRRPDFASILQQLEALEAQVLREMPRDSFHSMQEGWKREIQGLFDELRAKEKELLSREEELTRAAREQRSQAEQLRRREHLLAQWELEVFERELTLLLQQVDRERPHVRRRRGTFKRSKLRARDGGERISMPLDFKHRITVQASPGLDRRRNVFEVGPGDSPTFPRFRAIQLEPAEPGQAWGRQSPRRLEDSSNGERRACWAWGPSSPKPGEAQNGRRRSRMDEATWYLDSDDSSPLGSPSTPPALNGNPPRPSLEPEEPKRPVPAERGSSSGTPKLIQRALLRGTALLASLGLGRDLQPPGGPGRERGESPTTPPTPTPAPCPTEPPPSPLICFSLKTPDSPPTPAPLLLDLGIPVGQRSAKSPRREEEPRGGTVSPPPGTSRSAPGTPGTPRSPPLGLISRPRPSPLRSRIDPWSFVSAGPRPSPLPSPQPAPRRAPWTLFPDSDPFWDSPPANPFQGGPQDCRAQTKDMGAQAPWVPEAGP

[7] = biological target: T3, Serine/threonine-protein kinase STK11 (Homo sapiens) (UniProt Q15831); assay: Inhibition of human LKB1 assessed as enzyme activity at 1 uM using LSNLYHQGKFLQTFCGSPLYRRR as substrate preincubated for 20 mins followed by [gamma-33P]-ATP addition and measured after 120 mins by radiometric Hot-SpotSM Kinase assay relative to control
T3 sequence (whole entry): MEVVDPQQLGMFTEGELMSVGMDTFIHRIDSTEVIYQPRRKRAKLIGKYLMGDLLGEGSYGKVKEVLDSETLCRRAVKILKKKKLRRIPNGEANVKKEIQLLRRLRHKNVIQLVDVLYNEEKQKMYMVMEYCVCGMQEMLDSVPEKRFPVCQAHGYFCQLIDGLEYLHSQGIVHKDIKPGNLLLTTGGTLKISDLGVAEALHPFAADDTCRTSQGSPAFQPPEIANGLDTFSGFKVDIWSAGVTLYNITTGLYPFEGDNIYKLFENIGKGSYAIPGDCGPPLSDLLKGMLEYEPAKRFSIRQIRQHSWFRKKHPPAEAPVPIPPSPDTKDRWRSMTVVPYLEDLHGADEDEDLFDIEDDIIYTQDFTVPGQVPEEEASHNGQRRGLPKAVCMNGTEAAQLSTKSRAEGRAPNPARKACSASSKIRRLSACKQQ

[8] = biological target: Cyclin-dependent kinase 5/CDK5 activator 1 (Homo sapiens) (UniProt Q00535+Q15078); assay: Inhibition of human CDK5/p35 assessed as enzyme activity at 1 uM using RB Protein as substrate preincubated for 20 mins followed by [gamma-33P]-ATP addition and measured after 120 mins by radiometric Hot-SpotSM Kinase assay relative to control; assay type: protein-complex assay
Cyclin-dependent kinase 5/CDK5 activator 1 (Homo sapiens), sequence (Q00535 whole entry): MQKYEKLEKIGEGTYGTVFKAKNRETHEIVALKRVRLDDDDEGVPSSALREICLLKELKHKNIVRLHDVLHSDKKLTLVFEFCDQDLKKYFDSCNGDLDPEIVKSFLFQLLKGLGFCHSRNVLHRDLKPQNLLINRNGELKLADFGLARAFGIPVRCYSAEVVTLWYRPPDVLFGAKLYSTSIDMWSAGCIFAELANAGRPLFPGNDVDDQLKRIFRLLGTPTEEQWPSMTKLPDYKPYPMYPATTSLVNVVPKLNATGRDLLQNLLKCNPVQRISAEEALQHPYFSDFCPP
Cyclin-dependent kinase 5/CDK5 activator 1 (Homo sapiens), sequence (Q15078 99-307 partner limits assumed): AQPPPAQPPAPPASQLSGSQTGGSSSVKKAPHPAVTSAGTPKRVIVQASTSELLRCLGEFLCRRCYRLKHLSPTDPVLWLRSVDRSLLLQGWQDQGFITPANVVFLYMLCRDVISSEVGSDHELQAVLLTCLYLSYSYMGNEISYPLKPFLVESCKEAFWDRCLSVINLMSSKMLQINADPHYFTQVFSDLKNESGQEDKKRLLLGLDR

[9] = biological target: Cyclin-dependent kinase 2/cyclin E1 (Homo sapiens) (UniProt P24864+P24941); assay: Inhibition of human CDK2/cyclin E assessed as enzyme activity at 1 uM using RB Protein as substrate preincubated for 20 mins followed by [gamma-33P]-ATP addition and measured after 120 mins by radiometric Hot-SpotSM Kinase assay relative to control; assay type: protein-complex assay

SMILES	Activity [1]	Activity [2]	Activity [3]	Activity [4]	Activity [5]	Activity [6]	Activity [7]	Activity [8]	Activity [9]
CC[C@H](Nc1ncnc2[nH]cnc12)c1nc2cccc(F)c2c(=O)n1-c1ccccc1	95%	94%	99.3%	96%	89.6%	79.8%	104%	97.4%	96.2%
C[C@H](Nc1ncnc2nc[nH]c12)c1cc2cccc(Cl)c2c(=O)n1-c1ccccc1	101%	97.3%	101%	95.9%	94.4%	75.1%	93%	97.1%	95.6%
CC(C)Oc1ccc(-c2nn([C@@H](C)c3oc4ccc(F)cc4c(=O)c3-c3cccc(F)c3)c3ncnc(N)c23)cc1F [UMBRALISIB]	100%	96.3%	95.5%	95.8%	93.9%	80.9%	100%	91.7%	99%
